Source: patent US9827228B2, “Opioid receptor modulators and use thereof” (priority 2015, dated 2017)
Where two headings read alike, the source gives them in different places.

Assays:
hMOR = biological target: T1, hMOR (Homo sapiens, UniProt P35372); assay: cell-based; type: cell-based; details: for AUC: AUC of [Ca2+]i fluorescence
T1 construct: host or cells: CHO-K1
Method: Chinese hamster ovary (CHO)-K1 cells expressing hMOR and Gα15 (CHO-K1/MOR/Gα15) were cultured in F12 medium (GIBCO) supplemented with 10 μg/mL Hygromycin B (Invivogen), 20 μg/mL Zeocin (Invivogen) and P/S/F (100 units/mL penicillin, 100 μg/mL streptomycin, 10% fetal bovine serum). The cultures were incubated at 37° C. in a humidified 5% CO2 incubator.
One day prior to running the assay, CORNING® black 96-well assay plates having a clear flat bottom were coated with a 0.1 mg/mL Poly-L-Lysine solution. CHO-K1/MOR/Gα15 cells were suspended in F12 medium and plated at a density of about 8×10^4 cells/well in 200 μL medium. Cells were incubated under a humidified atmosphere of 10% CO2 at 37° C. overnight to reach an 80-90% confluent cell monolayer before the assay. On the day of the assay, 150 μL medium was removed from each well of the plates. To each well were added FLIPR® calcium assay reagents (Molecular Devices Corporation, Sunnyvale, Calif., USA; 50 μL) dissolved in 1× assay buffer (HBSS: KCl 5 mM, KH2PO4 0.3 mM, NaCl 138 mM, NaHCO3 4 mM, Na2HPO4 0.3 mM, d-glucose 5.6 mM, with additional 20 mM HEPES and […], pH 7.4) and 2.5 mM probenecid. After incubation at 37° C. for 1 hour, a test compound, alone or together with naloxone (a MOR antagonist), was also added to each well. Using a FlexStationlll instrument (Molecular Devices Corp.), increments of the [Ca^2+]i fluorescence after robotic injection of the cell suspension were monitored at 1.52 s intervals using the excitation wavelength of 485 nm and the emission wavelength of 525 nm. The [Ca^2+]i fluorescence was measured up to 90 s after the injection. The fluorescence intensity from 6 to 12 wells of cells were averaged and the relative amount of [Ca^2+]i release was determined by integrating the AUC of the [Ca^2+]i fluorescence averages.
A CHO-K1 cell line expressing MOR and Gα15 (GenScript) was used to set up a sensitive high-throughput screen (HTS) system. […] The HTS was performed in the absence or presence of naloxone (an opioid antagonist; 20 nM), to identify AAMs.

B6 mice = assay: Tail-flick test; type: in vivo; details: for AUC of inhibition of the tail-flick response: 0-180 min
Method: Male wild-type B6 mice (25-30 g) were kept in a temperature-controlled animal room with a 12-h light/dark cycle. The protocol was approved by the Institutional Animal Care and Use Committee of the National Health Research Institutes, Taiwan. Animal experiments were carried out in accordance with the Policies on the Use of Animals in Neuroscience Research and the ethical guidelines for investigations of experimental pain in conscious animals, International Association for the Study of Pain.
Tail-Flick Analgesia Meter (Columbia Instruments, Trussville, Ala., USA) was used to measure the tail-flick latencies of mice. The cut-off time for each measurement was 10 s to avoid tissue damage. Basal latencies (in seconds) were recorded before treatment and test latencies (also in seconds) were recorded at 30, 60, 90, 120, and 180 minutes after an intravenous injection of compounds. Time-response curves from compounds at various concentrations were obtained for anti-nociceptive effects occurring between 0 and 180 minutes. The AUC values corresponding to the various concentrations were also calculated. The anti-nociceptive effects were quantitatively calculated by substracting the basal latency from the test latency. An ED50 value was determined by an up-and-down method reported in Crocker et al., Pharmacol Biochem Behav, 1984, 21, 133-136.
To investigate whether AAMs could change the innate character of MOR to be activated by naloxone in vivo, tail-flick tests after acute treatment were performed. […] Unexpectedly, in mice injected only with the vehicle not containing naloxone, no anti-nociception effect was observed even with the highest dose of Compound 1 at 100 mg/kg. These in vivo results again indicate that Compound 1 served as an AAM of the MOR.

[1] = combined with naloxone, CHO-K1/MOR/Gα15 cells

T1 sequence (P35372 whole entry): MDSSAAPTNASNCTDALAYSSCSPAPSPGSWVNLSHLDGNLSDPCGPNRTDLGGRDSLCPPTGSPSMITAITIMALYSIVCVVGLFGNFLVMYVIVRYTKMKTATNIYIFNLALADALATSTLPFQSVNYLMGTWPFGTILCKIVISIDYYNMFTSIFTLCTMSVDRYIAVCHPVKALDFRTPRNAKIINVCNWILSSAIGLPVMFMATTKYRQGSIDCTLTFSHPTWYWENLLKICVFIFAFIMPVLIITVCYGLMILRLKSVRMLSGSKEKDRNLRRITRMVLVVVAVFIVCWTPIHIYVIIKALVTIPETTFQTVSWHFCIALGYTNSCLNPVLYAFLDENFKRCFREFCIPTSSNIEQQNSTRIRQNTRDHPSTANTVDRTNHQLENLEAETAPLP

| Structure (SMILES) | AUC (hMOR; [1]) | EC50 (hMOR; EC50, combined with naloxone) [µM] | EC50 (hMOR; EC50, combined with naloxone (20 nM)) [µM] | EC50 (hMOR; EC50, combined with naloxone, CHO-K1/MOR/Gα15 cells) [µM] | effect on Emax and potency of naloxone (hMOR; concentration-response curves of naloxone at several concentrations of Compound 1) | calcium release (hMOR; in the presence of naloxone) | PAM or NAM effect: Emax and potency of morphine (hMOR; morphine with Compound 1 at 30, 10, or 3.3 μM) | anti-nociceptive effect (B6 mice; Compound 1 alone at 25, 50, or 100 mg/kg (i.v.), B6 mice) | AUC of inhibition of the tail-flick response (B6 mice; Compound 1 at 25 mg/kg (i.v.) with naloxone at 10 mg/kg) [min×s] | AUC of inhibition of the tail-flick response (B6 mice; Compound 1 at 50 mg/kg (i.v.) with naloxone at 10 mg/kg) [min×s] | AUC of inhibition of the tail-flick response (B6 mice; Compound 1 at 100 mg/kg (i.v.) with naloxone at 10 mg/kg) [min×s] | EC50 (hMOR; combined with naloxone, CHO-K1/MOR/Gα15 cells, read-out: EC50) [µM] | ED50 (B6 mice; Mus musculus, mice injected with Compound 1 at 100 mg/kg, read-out: ED50 in inhibiting the tail-flick response) [mg/kg] |
| --- | --- | --- | --- | --- | --- | --- | --- | --- | --- | --- | --- | --- | --- |
| CCc1ccccc1Nc1nc(-c2sc(C)nc2C)cs1 [Compound 1, N-(2-Ethylphenyl)-2′,4′-dimethyl-4,5′-bi-1,3-thiazol-2-amine] | + (+: >5000) | < 10 | 4 | 3 to 10 | both Emax and potency of naloxone were altered | significant calcium release | neither Emax nor potency of morphine was significantly altered | did not produce any anti-nociceptive effect | 114.8±26 | 159.8±60 | 384±87 | – | – |
| CCc1ccccc1Nc1nc(C)cs1 [Compound 132, N-(2-Ethylphenyl)-4-methyl-1,3-thiazol-2-amine] | − (−: <5000) | – | – | – | – | – | – | – | – | – | – | > 10 | – |
| C=CCN1CC[C@]23c4c5ccc(O)c4O[C@H]2C(=O)CC[C@@]3(O)[C@H]1C5 [naloxone, reference compound] | – | – | – | – | – | – | – | – | – | – | – | – | 17.5 ± 4 |
